# Test results taken from the NIST ThermoML archive (doi:10.1016/j.jct.2007.03.012).
# Numbers after ± are expanded uncertainties.
# Conditions: Liquid, Bellows volumetry
smiles,measurement,setting,value
CCC [propane],mass density,"280 K, 1000 kPa",520.5 ± 0.47 kg/m3
same,mass density,"280 K, 2000 kPa",522.64 ± 0.47 kg/m3
same,mass density,"280 K, 3000 kPa",524.74 ± 0.47 kg/m3
same,mass density,"280 K, 5000 kPa",528.56 ± 0.48 kg/m3
same,mass density,"280 K, 10000 kPa",537.44 ± 0.48 kg/m3
same,mass density,"280 K, 20000 kPa",551.94 ± 0.5 kg/m3
same,mass density,"280 K, 30000 kPa",563.74 ± 0.51 kg/m3
same,mass density,"280 K, 40000 kPa",573.78 ± 0.52 kg/m3
same,mass density,"280 K, 50000 kPa",582.55 ± 0.53 kg/m3
same,mass density,"280 K, 60000 kPa",590.49 ± 0.53 kg/m3
same,mass density,"280 K, 70000 kPa",597.67 ± 0.54 kg/m3
same,mass density,"280 K, 80000 kPa",604.54 ± 0.55 kg/m3
same,mass density,"280 K, 90000 kPa",610.6 ± 0.55 kg/m3
same,mass density,"280 K, 100000 kPa",616.37 ± 0.56 kg/m3
same,mass density,"280 K, 120000 kPa",627.11 ± 0.59 kg/m3
same,mass density,"280 K, 140000 kPa",636.51 ± 0.59 kg/m3
same,mass density,"280 K, 160000 kPa",645.22 ± 0.6 kg/m3
same,mass density,"280 K, 180000 kPa",653.38 ± 0.61 kg/m3
same,mass density,"280 K, 200000 kPa",660.82 ± 0.6 kg/m3
same,mass density,"300 K, 1000 kPa",489.81 ± 0.44 kg/m3
same,mass density,"300 K, 2000 kPa",492.87 ± 0.44 kg/m3
same,mass density,"300 K, 3000 kPa",495.95 ± 0.45 kg/m3
same,mass density,"300 K, 5000 kPa",501.37 ± 0.45 kg/m3
same,mass density,"300 K, 10000 kPa",512.99 ± 0.46 kg/m3
same,mass density,"300 K, 20000 kPa",530.94 ± 0.48 kg/m3
same,mass density,"300 K, 30000 kPa",544.91 ± 0.49 kg/m3
same,mass density,"300 K, 40000 kPa",556.1 ± 0.5 kg/m3
same,mass density,"300 K, 50000 kPa",566.32 ± 0.51 kg/m3
same,mass density,"300 K, 60000 kPa",575.16 ± 0.52 kg/m3
same,mass density,"300 K, 70000 kPa",583.22 ± 0.53 kg/m3
same,mass density,"300 K, 80000 kPa",590.34 ± 0.53 kg/m3
same,mass density,"300 K, 90000 kPa",597.08 ± 0.54 kg/m3
same,mass density,"300 K, 100000 kPa",603.47 ± 0.55 kg/m3
same,mass density,"300 K, 120000 kPa",614.69 ± 0.56 kg/m3
same,mass density,"300 K, 140000 kPa",624.98 ± 0.59 kg/m3
same,mass density,"300 K, 160000 kPa",634.04 ± 0.6 kg/m3
same,mass density,"300 K, 180000 kPa",642.55 ± 0.58 kg/m3
same,mass density,"300 K, 200000 kPa",650.24 ± 0.59 kg/m3
same,mass density,"320 K, 2000 kPa",457.48 ± 0.41 kg/m3
same,mass density,"320 K, 3000 kPa",462.23 ± 0.42 kg/m3
same,mass density,"320 K, 5000 kPa",470.53 ± 0.43 kg/m3
same,mass density,"320 K, 10000 kPa",486.59 ± 0.44 kg/m3
same,mass density,"320 K, 20000 kPa",509.27 ± 0.46 kg/m3
same,mass density,"320 K, 30000 kPa",525.89 ± 0.47 kg/m3
same,mass density,"320 K, 40000 kPa",539.36 ± 0.49 kg/m3
same,mass density,"320 K, 50000 kPa",550.64 ± 0.5 kg/m3
same,mass density,"320 K, 60000 kPa",560.7 ± 0.51 kg/m3
same,mass density,"320 K, 70000 kPa",569.45 ± 0.52 kg/m3
same,mass density,"320 K, 80000 kPa",577.41 ± 0.53 kg/m3
same,mass density,"320 K, 90000 kPa",584.63 ± 0.53 kg/m3
same,mass density,"320 K, 100000 kPa",591.38 ± 0.54 kg/m3
same,mass density,"320 K, 120000 kPa",603.54 ± 0.57 kg/m3
same,mass density,"320 K, 140000 kPa",614.39 ± 0.58 kg/m3
same,mass density,"320 K, 160000 kPa",624.07 ± 0.59 kg/m3
same,mass density,"320 K, 180000 kPa",632.92 ± 0.59 kg/m3
same,mass density,"320 K, 200000 kPa",641.18 ± 0.58 kg/m3
same,mass density,"340 K, 3000 kPa",418.14 ± 0.39 kg/m3
same,mass density,"340 K, 5000 kPa",433.26 ± 0.4 kg/m3
same,mass density,"340 K, 10000 kPa",457.48 ± 0.42 kg/m3
same,mass density,"340 K, 20000 kPa",486.91 ± 0.44 kg/m3
same,mass density,"340 K, 30000 kPa",506.87 ± 0.46 kg/m3
same,mass density,"340 K, 40000 kPa",522.28 ± 0.47 kg/m3
same,mass density,"340 K, 50000 kPa",534.97 ± 0.49 kg/m3
same,mass density,"340 K, 60000 kPa",545.94 ± 0.5 kg/m3
same,mass density,"340 K, 70000 kPa",555.7 ± 0.51 kg/m3
same,mass density,"340 K, 80000 kPa",564.27 ± 0.51 kg/m3
same,mass density,"340 K, 90000 kPa",572.21 ± 0.52 kg/m3
same,mass density,"340 K, 100000 kPa",579.45 ± 0.53 kg/m3
same,mass density,"340 K, 120000 kPa",592.54 ± 0.54 kg/m3
same,mass density,"340 K, 140000 kPa",603.89 ± 0.58 kg/m3
same,mass density,"340 K, 160000 kPa",614.28 ± 0.58 kg/m3
same,mass density,"340 K, 180000 kPa",623.6 ± 0.57 kg/m3
same,mass density,"340 K, 200000 kPa",632.17 ± 0.58 kg/m3
same,mass density,"360 K, 5000 kPa",380.9 ± 0.36 kg/m3
same,mass density,"360 K, 10000 kPa",424.08 ± 0.39 kg/m3
same,mass density,"360 K, 20000 kPa",463.3 ± 0.42 kg/m3
same,mass density,"360 K, 30000 kPa",487.16 ± 0.44 kg/m3
same,mass density,"360 K, 40000 kPa",505.03 ± 0.46 kg/m3
same,mass density,"360 K, 50000 kPa",519.45 ± 0.47 kg/m3
same,mass density,"360 K, 60000 kPa",531.56 ± 0.48 kg/m3
same,mass density,"360 K, 70000 kPa",542.12 ± 0.49 kg/m3
same,mass density,"360 K, 80000 kPa",551.67 ± 0.5 kg/m3
same,mass density,"360 K, 90000 kPa",560.11 ± 0.51 kg/m3
same,mass density,"360 K, 100000 kPa",568.02 ± 0.52 kg/m3
same,mass density,"360 K, 120000 kPa",581.93 ± 0.53 kg/m3
same,mass density,"360 K, 140000 kPa",593.99 ± 0.57 kg/m3
same,mass density,"360 K, 160000 kPa",604.85 ± 0.58 kg/m3
same,mass density,"360 K, 180000 kPa",614.61 ± 0.56 kg/m3
same,mass density,"360 K, 200000 kPa",623.73 ± 0.57 kg/m3
same,mass density,"380 K, 10000 kPa",384.1 ± 0.36 kg/m3
same,mass density,"380 K, 20000 kPa",438.22 ± 0.41 kg/m3
same,mass density,"380 K, 30000 kPa",466.67 ± 0.43 kg/m3
same,mass density,"380 K, 40000 kPa",487.15 ± 0.45 kg/m3
same,mass density,"380 K, 50000 kPa",503.08 ± 0.46 kg/m3
same,mass density,"380 K, 60000 kPa",516.47 ± 0.47 kg/m3
same,mass density,"380 K, 70000 kPa",527.94 ± 0.48 kg/m3
same,mass density,"380 K, 80000 kPa",538.06 ± 0.49 kg/m3
same,mass density,"380 K, 90000 kPa",547.06 ± 0.5 kg/m3
same,mass density,"380 K, 100000 kPa",555.29 ± 0.51 kg/m3
same,mass density,"380 K, 120000 kPa",570.05 ± 0.56 kg/m3
same,mass density,"380 K, 140000 kPa",582.94 ± 0.57 kg/m3
same,mass density,"380 K, 160000 kPa",594.15 ± 0.58 kg/m3
same,mass density,"380 K, 180000 kPa",604.41 ± 0.55 kg/m3
same,mass density,"380 K, 200000 kPa",613.68 ± 0.56 kg/m3
same,mass density,"400 K, 10000 kPa",334.74 ± 0.33 kg/m3
same,mass density,"400 K, 20000 kPa",411.69 ± 0.39 kg/m3
same,mass density,"400 K, 30000 kPa",445.87 ± 0.41 kg/m3
same,mass density,"400 K, 40000 kPa",469.1 ± 0.44 kg/m3
same,mass density,"400 K, 50000 kPa",486.87 ± 0.45 kg/m3
same,mass density,"400 K, 60000 kPa",501.44 ± 0.46 kg/m3
same,mass density,"400 K, 70000 kPa",513.89 ± 0.47 kg/m3
same,mass density,"400 K, 80000 kPa",524.67 ± 0.48 kg/m3
same,mass density,"400 K, 90000 kPa",534.43 ± 0.49 kg/m3
same,mass density,"400 K, 100000 kPa",543.41 ± 0.5 kg/m3
same,mass density,"400 K, 120000 kPa",558.91 ± 0.51 kg/m3
same,mass density,"400 K, 140000 kPa",572.19 ± 0.55 kg/m3
same,mass density,"400 K, 160000 kPa",583.93 ± 0.56 kg/m3
same,mass density,"400 K, 180000 kPa",594.64 ± 0.57 kg/m3
same,mass density,"400 K, 200000 kPa",604.15 ± 0.55 kg/m3
same,mass density,"420 K, 20000 kPa",384.77 ± 0.36 kg/m3
same,mass density,"420 K, 30000 kPa",425.47 ± 0.4 kg/m3
same,mass density,"420 K, 40000 kPa",451.66 ± 0.43 kg/m3
same,mass density,"420 K, 50000 kPa",471.39 ± 0.44 kg/m3
same,mass density,"420 K, 60000 kPa",487.29 ± 0.45 kg/m3
same,mass density,"420 K, 70000 kPa",500.74 ± 0.46 kg/m3
same,mass density,"420 K, 80000 kPa",512.43 ± 0.47 kg/m3
same,mass density,"420 K, 90000 kPa",522.77 ± 0.49 kg/m3
same,mass density,"420 K, 100000 kPa",532.04 ± 0.49 kg/m3
same,mass density,"420 K, 120000 kPa",548.04 ± 0.55 kg/m3
same,mass density,"420 K, 140000 kPa",562.28 ± 0.55 kg/m3
same,mass density,"420 K, 160000 kPa",574.66 ± 0.56 kg/m3
same,mass density,"420 K, 180000 kPa",585.51 ± 0.54 kg/m3
same,mass density,"420 K, 200000 kPa",595.61 ± 0.55 kg/m3
same,mass density,"440 K, 20000 kPa",357.43 ± 0.34 kg/m3
same,mass density,"440 K, 30000 kPa",405.22 ± 0.38 kg/m3
same,mass density,"440 K, 40000 kPa",434.68 ± 0.42 kg/m3
same,mass density,"440 K, 50000 kPa",456.37 ± 0.43 kg/m3
same,mass density,"440 K, 60000 kPa",473.51 ± 0.44 kg/m3
same,mass density,"440 K, 70000 kPa",488.02 ± 0.46 kg/m3
same,mass density,"440 K, 80000 kPa",500.46 ± 0.47 kg/m3
same,mass density,"440 K, 90000 kPa",511.55 ± 0.48 kg/m3
same,mass density,"440 K, 100000 kPa",521.4 ± 0.49 kg/m3
same,mass density,"440 K, 120000 kPa",538.39 ± 0.55 kg/m3
same,mass density,"440 K, 140000 kPa",553.07 ± 0.56 kg/m3
same,mass density,"440 K, 160000 kPa",565.84 ± 0.56 kg/m3
same,mass density,"440 K, 180000 kPa",577.32 ± 0.56 kg/m3
same,mass density,"440 K, 200000 kPa",587.63 ± 0.54 kg/m3
